What was measured:
Format in all cases: biochemical
NEP [1] = target: T1, NEP (Rattus norvegicus, UniProt P07861); assay: NEP inhibition activity using rat renal cortex (Experiment A-1); parameters: membrane fraction prepared from rat renal cortex; from tissue; host or cells: rat renal cortex, membrane fraction (method of Booth and Kenny); settings: rat renal cortex membrane fraction
T1 sequence (P07861 1-750): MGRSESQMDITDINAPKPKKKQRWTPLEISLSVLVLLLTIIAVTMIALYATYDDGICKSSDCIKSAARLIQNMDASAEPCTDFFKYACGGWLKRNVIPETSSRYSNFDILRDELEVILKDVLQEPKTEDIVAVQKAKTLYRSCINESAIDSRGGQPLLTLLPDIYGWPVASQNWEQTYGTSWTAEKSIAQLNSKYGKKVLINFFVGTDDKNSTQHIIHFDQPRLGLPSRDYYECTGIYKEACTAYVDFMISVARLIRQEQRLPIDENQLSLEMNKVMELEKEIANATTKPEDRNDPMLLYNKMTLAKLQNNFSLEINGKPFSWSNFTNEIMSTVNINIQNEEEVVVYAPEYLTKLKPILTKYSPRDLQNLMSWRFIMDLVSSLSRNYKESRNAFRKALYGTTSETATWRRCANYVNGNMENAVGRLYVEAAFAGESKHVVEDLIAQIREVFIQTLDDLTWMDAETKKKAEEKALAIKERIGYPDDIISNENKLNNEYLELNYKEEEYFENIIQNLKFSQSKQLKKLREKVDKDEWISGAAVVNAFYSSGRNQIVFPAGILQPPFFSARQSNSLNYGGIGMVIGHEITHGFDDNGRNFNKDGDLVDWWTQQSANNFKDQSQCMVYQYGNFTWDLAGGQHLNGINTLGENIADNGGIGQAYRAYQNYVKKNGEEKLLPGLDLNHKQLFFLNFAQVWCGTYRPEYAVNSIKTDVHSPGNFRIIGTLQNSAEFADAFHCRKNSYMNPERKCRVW
Description: The NEP activity was determined by using a membrane fraction prepared from rat renal cortex in accordance with the method of Booth and Kenny (A Rapid Metod for the Purificaton of Microvilli from Rabbit Kidney., Andrew G. Booth and A. John Kenny, Biochem j., 1974, 142, […].).
The NEP activity was determined by the following manner in accordance with the method of Orlowsky and Wilk (Purification and Specificity of a Membrane-Bound Metalloendopeptidase from Bovine Pituitaries., Marian Orlowsky and Shrwin Wilk, Biochemistry, 1981, 20, 4942-4950.).
(§1) As a substrate, benzoyl-glycyl-arginyl-arginyl-2-naphthylamide (benzoyl-Gly-Arg-Arg-2-naphthylamide (Nova Biochem, Switzerland)) was used. In the presence of an NEP enzyme preparation and excessive leucine aminopeptidase (sigma chemical Co., U.S.A.), the liberated naphthylamine was made to undergo color development with first garnet (Sigma chemical Co., U.S.A.), followed by the measurement of the absorbance at a wavelength of 540 nm.
(§2) With respect to the NEP inhibition activity, the inhibitor was added to the experimental system as described above in such a manner as to give the final concentrations of 1, 3, 10, 30, 100, 300 and 1000 nM, an inhibition curve was prepared, and then the concentration at which 50% inhibition was achieved was taken as IC50.

ACE [2] = target: T2, ACE (Rattus norvegicus, UniProt P47820); assay: ACE inhibition activity using rat lung (Experiment A-2); settings: rat lung membrane fraction, borate buffer pH 8.3
T2 construct: membrane fraction prepared from rat lung; from tissue; host or cells: rat lung, membrane fraction (method of Wu-Wong et al.)
T2 sequence (P47820 36-1313): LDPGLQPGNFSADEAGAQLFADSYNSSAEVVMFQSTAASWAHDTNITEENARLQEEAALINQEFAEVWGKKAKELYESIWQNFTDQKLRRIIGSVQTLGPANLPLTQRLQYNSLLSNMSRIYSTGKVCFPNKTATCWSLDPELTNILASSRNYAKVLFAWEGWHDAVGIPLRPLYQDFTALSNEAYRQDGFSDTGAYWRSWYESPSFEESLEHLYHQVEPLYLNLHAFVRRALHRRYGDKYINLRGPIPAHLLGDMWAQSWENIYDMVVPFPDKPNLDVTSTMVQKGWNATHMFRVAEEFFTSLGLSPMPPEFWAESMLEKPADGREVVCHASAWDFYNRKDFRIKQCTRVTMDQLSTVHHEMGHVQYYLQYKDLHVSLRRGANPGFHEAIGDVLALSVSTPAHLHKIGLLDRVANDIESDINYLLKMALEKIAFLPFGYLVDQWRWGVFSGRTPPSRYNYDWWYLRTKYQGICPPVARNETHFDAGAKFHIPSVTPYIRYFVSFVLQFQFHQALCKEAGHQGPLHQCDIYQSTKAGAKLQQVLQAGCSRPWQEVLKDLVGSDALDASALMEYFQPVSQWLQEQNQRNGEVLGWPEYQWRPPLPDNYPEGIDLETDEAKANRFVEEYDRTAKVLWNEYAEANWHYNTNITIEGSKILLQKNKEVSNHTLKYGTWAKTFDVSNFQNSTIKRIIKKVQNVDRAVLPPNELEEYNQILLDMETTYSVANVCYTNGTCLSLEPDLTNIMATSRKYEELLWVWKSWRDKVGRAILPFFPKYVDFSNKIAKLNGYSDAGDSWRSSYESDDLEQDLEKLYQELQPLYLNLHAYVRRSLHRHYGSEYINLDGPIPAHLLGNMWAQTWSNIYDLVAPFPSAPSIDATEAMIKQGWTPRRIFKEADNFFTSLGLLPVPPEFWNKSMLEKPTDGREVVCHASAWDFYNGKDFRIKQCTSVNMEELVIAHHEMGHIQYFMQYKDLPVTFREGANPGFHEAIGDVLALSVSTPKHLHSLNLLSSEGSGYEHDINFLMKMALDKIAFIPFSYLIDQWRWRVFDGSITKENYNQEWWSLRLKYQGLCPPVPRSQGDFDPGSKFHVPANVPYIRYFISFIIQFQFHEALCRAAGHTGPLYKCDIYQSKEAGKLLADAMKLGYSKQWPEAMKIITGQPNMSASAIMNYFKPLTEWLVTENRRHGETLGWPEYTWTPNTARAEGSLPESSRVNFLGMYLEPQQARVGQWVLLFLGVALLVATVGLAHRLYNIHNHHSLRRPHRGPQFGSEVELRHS
Description: (§3) The ACE inhibition activity was determined by using a membrane fraction prepared from rat lung in accordance with the method of Wu-Wong et al. (Characterization of Endthelin Converting Enzyme in Rat Lung., Junshyum R. Wu-Wong, Gerald, P. Budzik, Edward M. Devine and Terry J. Opgenorth, Biochem. Biophys. Res. Commun., 1990, 171, 1291-1296.).
The ACE activity was determined with the use of a modification (modified to a borate buffer, pH 8.3) of the method of Cushman and Cheung (Spectrophotometric Assay and Properties of the Angiotensin-Converting Enzyme of Rabbit Lung., Cushman, D. W. and Cheung H. S., 1971, 20, 1637-1648.).
(§4) In the presence of ACE, the hippurate liberated from hippuryl-histidyl-leucine (Hippuryl-His-Leu (PeptideInstitute Inc., Japan)) was extracted with ethyl acetate and then the absorbance was measured at a wavelength of 228 nm.
as §2, with “ACE” for “NEP”

NEP [3] = target: T1, NEP; assay: NEP inhibition activity (Experiment C-1); settings: Table C-1
Description: The NEP activity was determined by the following manner in accordance with the method of Orlowsky and Wilk (Purification and Specificity of a Membrane-Bound Metalloendpeptidase from Bovine Pituitaries., Marian Orlowsky and Shrwin Wilk, Biochemistry, 1981, 20, 4942-4950.).
as §1
as §2, with “test compound” for “inhibitor”, “IC50. As a comparative compound, [4S-[4α,7α(R*),12bβ]]-7-[(1-oxo-2-(S)-thio-3-phenyl-propyl)amino]-1,2,3,4,6,7,8,12b-octahydro-6-oxopyrido-[2,1-a][2]benzazepine-4-carboxylic acid was used.” for “IC50.”

ACE [4] = target: T2, ACE; assay: ACE inhibition activity using rat lung (Experiment C-2); settings: Table C-1; rat lung membrane fraction, borate buffer pH 8.3
Description: as §3, with “Gerald” for “Gerald,”
The ACE activity was determined with the use of a modification (modified to a borate buffer, pH 8.3) of the method of Cushman and Cheung (Spectrophotometric Assay and Properties of the Angiotensin-Converting Enzyme of Rabbit Lung., Cushman D. W. and Cheung H. S., 1971, 20, 1637-1648.).
as §4
as §2, with “ACE” for “NEP”, “test compound” for “inhibitor”, “reaction” for “experimental”, “IC50. As a comparative compound, [4S-[4α,7α(R*),12bβ]]-7-[(1-oxo-2-(S)-thio-3-phenyl-propyl)amino]-1,2,3,4,6,7,8,12b-octahydro-6-oxopyrido-[2,1-a][2]benzazepine-4-carboxylic acid was used.” for “IC50.”

NEP [5] = target: T1, NEP; assay: NEP inhibition activity (Experiment E-1); parameters: membrane fraction prepared from rat renal cortex; from tissue; host or cells: rat renal cortex, membrane fraction (method of Booth and Kenny); settings: rat renal cortex membrane fraction
Description: As a source of the enzyme NEP, a membrane fraction prepared from rat renal cortex in accordance with the method of Booth and Kenny (A Rapid Method for the Purification of Microvilli from Rabbit Kidney., Andrew G. Booth and A. John Kenny, Biochem. j., 1974, 142,575-581.) was employed. The NEP activity was determined in accordance with the method of Orlowsky and Wilk (Purification and Specificity of a Membrane-Bound Metalloendpeptidase from Bovine Pituitaries., Marian Orlowsky and Shrwin Wilk, Biochemistry, 1981, 20, 4942-4950.). Now the procedure will be briefly described.
as §1, with “(benzoyl-Gly-Arg-Arg-2 naphthylamide” for “(benzoyl-Gly-Arg-Arg-2-naphthylamide”
(§5) To determine the NEP inhibition activity and the ACE inhibition activity, the inhibitor was added to the assay systems of both enzyme activities as described above in such a manner as to give the final concentrations of 1, 3, 10, 30, 100, […] and 1000 nM and inhibition curves were prepared. Then the concentration at which 50% inhibition was achieved was taken as IC50.

ACE [6] = target: T2, ACE; assay: ACE inhibition activity (Experiment E-1); settings: rat lung membrane fraction, pH 8.3
Description: As a source of the enzyme ACE, a membrane fraction prepared from rat lung in accordance with the method of Wu-Wong et al. (Characterization of Endthelin Converting Enzyme in Rat Lung., Jinshyum R. Wu-Wong, Gerald, P. Budzik, Edward M. Devine and Terry J. Opgenorth, Biochem. Biophys. Res. Commun., 1990, 171, 1291-1296.) was used. The ACE activity was determined with the use of a modification (modified to a borate buffer pH 8.3) of the method of Cushman and Cheung (Spectrophotometric Assay and Properties of the Angiotensin-Converting Enzyme of Rabbit Lung., Cushman D. W. and Cheung H. S., 1971, 20, 1637-1648.). Now the procedure will be briefly described.
as §4, §5

Compound	IC50 (NEP [1]) [nM]	IC50 (ACE [2]) [nM]	further results
O=C(O)CN1C(=O)C(NC(=O)[C@@H](S)Cc2ccccc2)CCc2ccc(-c3ccccc3)cc21 (stereo partly drawn) [Example A-3, 1-Carboxymethyl-3-[(S)-2-mercapto-3-phenylpropionylamino]-8-phenyl-1H-[1]benzazepin-2-one]	90	50	–
CC(C)[C@H](S)C(=O)NC1CCc2ccc(-c3ccccc3)cc2N(CC(=O)O)C1=O (stereo partly shown) [Example A-5]	160	50	–
O=C(O)CN1C(=O)C(NC(=O)[C@@H](S)Cc2ccccc2)CCc2ccccc21 (stereo partly drawn) [Example A-7, 1-Carboxymethyl-3-[(S)-2-mercapto-3-phenylpropionylamino]1H-[1]benzazepin-2-one]	8.2	10	–
CC[C@H](C)[C@H](S)C(=O)N[C@H]1Cc2ccc(NS(C)(=O)=O)cc2[C@H]2CCC[C@@H](C(=O)O)N2C1=O [Example C-15, [4S-[4α,7α(R*),12bβ]]-11-Methylsulfonylamino-7-[[(2S,3S)-3-methyl-1-oxo-2-thiopentyl]amino]-6-oxo-1,2,3,4,6,7,8,12b-octahydropyrido[2,1-a][2]benzazepine-4-carboxylic acid]	–	–	IC50 (NEP [3]): 6.6 nM; IC50 (ACE [4]): 12.5 nM
COc1ccc(C[C@H](S)C(=O)N[C@H]2Cc3ccc(-c4ccccc4)cc3[C@H]3CCC[C@@H](C(=O)O)N3C2=O)cc1 [Example E-7, [4S-[4α,7α(R*),12bβ]]-7-[(S)-2-Mercapto-3-(4-methoxyphenyl)propionylamino]-6-oxo-11-phenyl-1,2,3,4,6,7,8,12b-octahydropyrido[2.1-a][2]benzazepine-4-carboxylic acid]	–	–	IC50 (NEP [5]): 45 nM; IC50 (ACE [6]): 11 nM
